Experimental data published in article PMC5630632, “Assessing inhibitors of mutant isocitrate dehydrogenase using a suite of pre-clinical discovery assays” (Scientific Reports, 2017).

Legend:
[1] = system: RBE (R132S) 3D cellular spheroids; test: 2-HG production, spheroids (3D), RBE; format: cell-based; conditions: Homo sapiens; 3D spheroid, mass spec
From the text: (§1) To evaluate the effect of mIDH1 inhibitors in more relevant models of solid tumors, we adapted a 3-dimensional (3D) multicellular tumor spheroid assay to monitor spheroid formation and 2-HG production. Small molecules can have diminished efficacy in multicellular tumor spheroid models due to limited penetration and the heterogeneous nature of the 3D tumor spheroid[39],[40]. We began by testing the 6 aforementioned cell lines for their ability to form spheroids in ultra-low attachment plates at varying cell concentrations (1000–5000 cells/well). […] Overall, spheroids produced less extracellular 2-HG than cells cultured in monolayer (Fig. 7B).
(§2) Using these simple 3D models of solid tumors, we assessed the ability of inhibitors to reduce 2-HG production.
(§3) 2-HG production: Cells grown as spheroids (3D)
(§4) (RBE) cells/well/150 μ L to form spheroids. Of note, we were not able to obtain spheroids using SNU1079 cells. Plates were sealed with gas permeable membranes, centrifuged at 40 rcf for 1 min, and incubated at 37°C, 5% CO2, 90% RH for 96 (HT108 0, U87 and JJ01 2) or 4 8 (RBE) h r. Cells were washed (by remo ving 10 0 μL of exhausted media and re placing it with 100 μL of growth media, twice) and treated with 50 μL of a solution of media containing the indicated compounds. Each compound was tested as an 8-point dilution series ranging from 5 μM to 2.3 nM.
(§5) After 96 hr of t reatment, 100 μL of the exhausted media was collected and snap frozen on dry ice. Samples were analyzed by LC -MS for 2- HG concentrations using Rapidfire /Mass Spectrometry (Quintara) ( 4) . Plates were first imaged on the Celigo Imaging Cytometer (Ne xcelom Bioscience) to quantify area of each spheroid. Cell viability was subsequently measured using the CellTiter-Glo assay with some modifications: 50 μL of a solution of CellTiter-Glo reagent containing a final concentration of 0.025 % Trypsin (Thermo Sci entific) was added to each well and plates were shaken at 500 rpm for 30 min before reading.

[2] = High-throughput PAMPA (GIT), pH 7.4; format: in vitro ADME; conditions: read-out: HT PAMPA Permeability
From the text: In Vitro Physicochemical and Drug Metabolism Studies:
High-Throughput PAMPA assay
The stirring double- sin k PAMPA method patented by pION Inc. (Billeri ca, MA) was employed to determine the permeability of compounds via PAMPA passive diffusion. The PAMPA lipid membrane consisted of an artificial membrane of a proprietary lipid mixture and dodecane (Pion Inc.), optimized to predict gastrointestinal tract (GIT) passive diffusion permeability, was immobilized on a plastic matrix of a 96 well “donor” filter plate placed above a 96 well “a cceptor” plate. A pH 7.4 solution was used in both donor and acceptor wells. The test articles, stocked in 10 mM DMSO solutions, were diluted to 0.05 mM in aqueous buffer (pH 7.4) , and the concentration of DMSO was 0.5% in the final solution. During the 30-min permeation period at room temperature, the test samples in the donor compartment were stirred using the Gutbox te chnology (Pion Inc.) to reduce the unstirred water layer. The test article concentrations in the donor and acceptor compartments were measured using an UV plate reader (Nano Quant, Infinite 200 […]
PRO, Tecan Inc., Männedorf, Switzerland). Permeability calculations were performed using Pion Inc. software and were expressed in units of 10-6 cm/s. […]

R172Q mIDH2 = target: T1, R172Q mIDH2 (Homo sapiens, UniProt P48735, R172Q); test: mIDH2-R172Q enzyme assay (Reaction Biology), diaphorase/resazurin coupled; conditions: for Emax: read-out: IDH2 R172Q % EMax
T1 sequence (P48735 40-452 R172Q): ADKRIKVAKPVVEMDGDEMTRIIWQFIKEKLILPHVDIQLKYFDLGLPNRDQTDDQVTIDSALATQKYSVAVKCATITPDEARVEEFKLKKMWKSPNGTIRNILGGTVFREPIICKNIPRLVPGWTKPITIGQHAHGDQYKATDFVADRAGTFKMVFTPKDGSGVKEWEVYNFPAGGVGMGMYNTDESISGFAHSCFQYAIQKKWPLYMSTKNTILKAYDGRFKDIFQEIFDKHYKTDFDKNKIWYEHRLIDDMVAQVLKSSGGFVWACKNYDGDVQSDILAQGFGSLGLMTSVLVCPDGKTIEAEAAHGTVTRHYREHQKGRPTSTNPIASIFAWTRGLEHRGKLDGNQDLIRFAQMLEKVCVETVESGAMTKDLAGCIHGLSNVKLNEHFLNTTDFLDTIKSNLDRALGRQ

[3] = Microsomal metabolic stability, human; format: in vitro ADME; conditions: for half-life at 1 µM: pH 7.4, human liver microsomes
[4] = system: JJ012 (R132G) 3D cellular spheroids; test: 2-HG production, spheroids (3D), JJ012; format: cell-based; conditions: Homo sapiens; 3D spheroid, mass spec
From the text: as §1, §2, §3, §4, §5

[5] = target: P-glycoprotein (P-gp, MDR1, ABCB1) in MDCK cells (Homo sapiens, UniProt P08183); test: Bidirectional MDCK-MDR1 permeability assay (Cyprotex); conditions: with tariquidar (1 µM) or verapamil (100 µM); result in words
Sequence of P-glycoprotein (P-gp, MDR1, ABCB1) in MDCK cells (P08183 whole entry): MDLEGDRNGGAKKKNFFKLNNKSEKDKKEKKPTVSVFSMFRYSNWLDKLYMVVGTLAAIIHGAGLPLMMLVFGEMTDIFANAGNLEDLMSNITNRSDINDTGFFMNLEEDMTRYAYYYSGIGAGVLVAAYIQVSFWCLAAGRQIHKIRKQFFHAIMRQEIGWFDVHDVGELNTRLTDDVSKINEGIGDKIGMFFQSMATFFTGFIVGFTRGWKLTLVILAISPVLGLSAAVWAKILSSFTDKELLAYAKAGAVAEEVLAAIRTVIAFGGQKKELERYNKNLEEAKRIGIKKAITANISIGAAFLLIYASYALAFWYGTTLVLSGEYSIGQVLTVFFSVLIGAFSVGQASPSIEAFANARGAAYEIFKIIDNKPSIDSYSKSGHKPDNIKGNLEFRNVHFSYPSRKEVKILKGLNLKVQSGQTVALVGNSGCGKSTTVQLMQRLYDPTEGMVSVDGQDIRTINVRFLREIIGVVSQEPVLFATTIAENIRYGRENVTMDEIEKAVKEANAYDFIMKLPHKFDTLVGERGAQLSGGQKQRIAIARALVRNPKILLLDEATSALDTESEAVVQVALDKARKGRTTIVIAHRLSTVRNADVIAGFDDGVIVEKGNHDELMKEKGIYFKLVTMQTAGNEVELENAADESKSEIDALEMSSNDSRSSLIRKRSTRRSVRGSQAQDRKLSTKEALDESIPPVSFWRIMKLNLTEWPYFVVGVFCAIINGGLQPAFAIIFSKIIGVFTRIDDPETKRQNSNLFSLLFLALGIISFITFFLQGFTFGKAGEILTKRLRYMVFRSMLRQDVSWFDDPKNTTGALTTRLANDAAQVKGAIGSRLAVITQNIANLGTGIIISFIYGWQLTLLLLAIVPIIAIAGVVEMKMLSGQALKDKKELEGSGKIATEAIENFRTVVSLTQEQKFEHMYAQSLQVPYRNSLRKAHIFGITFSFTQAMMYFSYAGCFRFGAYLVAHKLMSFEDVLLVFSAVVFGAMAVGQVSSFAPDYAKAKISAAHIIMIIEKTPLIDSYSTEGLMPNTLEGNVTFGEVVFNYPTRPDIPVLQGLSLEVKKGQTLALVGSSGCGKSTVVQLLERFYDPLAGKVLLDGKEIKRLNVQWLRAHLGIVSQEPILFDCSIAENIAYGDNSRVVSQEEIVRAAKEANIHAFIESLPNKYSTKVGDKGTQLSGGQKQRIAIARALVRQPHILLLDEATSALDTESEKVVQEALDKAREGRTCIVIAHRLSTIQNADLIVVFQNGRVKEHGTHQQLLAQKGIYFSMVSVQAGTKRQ

| SMILES | EC50 [1] | Emax [1] | Papp at 30 min, 0.05 mM [2] | EC50 (R172Q mIDH2) | Emax (R172Q mIDH2) | half-life at 1 µM [3] | EC50 [4] | Emax [4] | basolateral/apical transport imbalance in the presence of P-gp inhibitors [5] | metabolic stability in hepatic microsomes ([3]; three species (mouse, rat and human), result in words) | IC50 (R172Q mIDH2) |
| --- | --- | --- | --- | --- | --- | --- | --- | --- | --- | --- | --- |
| Cc1ccccc1[C@@H](C(=O)NC1CCCC1)N(C(=O)Cn1cnc2ccccc21)c1cccc(F)c1 [ML309] | 321 nM | 91.3% | > 1700 ×10⁻⁶ cm/s | > 30 µM | 10.1% | 1.5 min | 218 nM | 92% | – | – | – |
| Cc1ccccc1C(C(=O)NC1CCCCC1)N(C(=O)Cn1ccnc1C)c1cccc(F)c1 (stereo not drawn) [AGI-5198] | 1050 nM | 118% | > 1400 ×10⁻⁶ cm/s | > 30 µM | 6% | 4.2 min | 428 nM | 113% | – | – | – |
| CC(=O)N1CCN(Cc2ccc([C@H](C)Nc3nccc(N4C(=O)OC[C@@H]4C(C)C)n3)cc2)CC1 [Norvartis 556] | 546 nM | 102% | 390 ×10⁻⁶ cm/s | > 30 µM | 6.6% | 7.9 min | 678 nM | 104% | – | – | – |
| N#Cc1ccnc(N2C(=O)CC[C@H]2C(=O)N(c2cncc(F)c2)[C@H](C(=O)NC2CC(F)(F)C2)c2ccccc2Cl)c1 [AG-120, Ivosidenib] | 254 nM | 62.9% | 537 ×10⁻⁶ cm/s | > 30 µM | 11.1% | > 120 min | 24 nM | 79.8% | completely reversed | highest metabolic stability | – |
| COc1c(C)cc(NC(=O)c2nn(Cc3ccc(F)cc3)c3c2CN(C(=O)c2ccc[nH]2)C[C@]3(C)C(N)=O)cc1C [GSK864] | 482 nM | 95.6% | 365 ×10⁻⁶ cm/s | 0.022 µM | 63% | 23.6 min | 360 nM | 102% | – | – | 183 nM |
| Cc1ccccc1C(C(=O)NC1CCCCC1)N(C(=O)Cn1cnc2ccccc21)c1cccc(F)c1 (stereo not drawn) [Agios 135] | 451 nM | 97.4% | 787 ×10⁻⁶ cm/s | > 30 µM | 1% | 1.5 min | 236 nM | 95.6% | – | – | – |
